Type in all cases: functional
For test [1], the system named is Staphylococcus aureus. Briefly: The compound has been evaluated for the antibacterial activity against Staphylococcus aureus EryS 011UC4 strains.
The subject of test [2] is Mus musculus. Briefly: The compound has been evaluated for the in vivo efficacy that protect 50% of mice from lethal infection by Streptococcus Pneumoniae EryRi 030SJ5i strains after oral administration.
The test system of test [3] is Mus musculus. Briefly: The compound has been evaluated for the in vivo efficacy that protect 50% of mice from lethal infection by Staphylococcus aureus EryS 011HT17 strains after oral administration.
Test [4] relates to Mus musculus. Briefly: The compound has been evaluated for the in vivo efficacy that protect 50% of mice from lethal infection by Streptococcus Pneumonia EryS 032UC1 strain after oral administration.
For test [5], the system named is Streptococcus pneumoniae. Briefly: The compound has been evaluated for the antibacterial activity against Streptococcus pneumoniae EryRc 030SJ1 strains.
Test [6] has as its system Staphylococcus aureus. Briefly: The compound has been evaluated for the antibacterial activity against Staphylococcus aureus EryRc 011CB20 strains.
Test [7] has as its system Mus musculus. Briefly: The compound has been evaluated for the in vivo efficacy that protect 50%of mice from lethal infection by Haemophilus influenzae AmpR 351RD7 after oral administration.
The subject of test [8] is Streptococcus pneumoniae. Briefly: The compound has been evaluated for the antibacterial activity against Streptococcus pneumoniae EryRc 030PW23c strains.
Test [9] has as its system Mus musculus. Briefly: The compound has been evaluated for the in vivo efficacy that protect 50% of mice from lethal infection by Streptococcus Pneumoniae EryRc 030MV2 strains after oral administration.
Another test deals with Streptococcus pyogenes. Briefly: The compound has been evaluated for the antibacterial activity against Streptococcus pyogenes EryS 02A1UC1.
For test [10], the system named is Streptococcus pneumoniae. Briefly: The compound has been evaluated for the antibacterial activity against Streptococcus pneumoniae Ery Ri 030SJ 5i strains.
Test [11] relates to Staphylococcus aureus. Briefly: The compound has been evaluated for the antibacterial activity against Staphylococcus aureus EryRi 011GO25i strains.
The test system of test [12] is Streptococcus pneumoniae. Briefly: The compound has been evaluated for the antibacterial activity against Streptococcus pneumoniae EryS 032UC1 strains.
The next test deals with Haemophilus influenzae. Briefly: The compound has been evaluated for the antibacterial activity against Haemophilus influenzae 351HT3 (beta-lactamase +).
The subject of test [13] is Mus musculus. Briefly: The compound has been evaluated for the in vivo efficacy that protect 50% of mice from lethal infection of Streptococcus Pneumoniae EryRc 030MV2 strains after oral administration.
Test [14] concerns Mus musculus. Briefly: The compound has been evaluated for the in vivo efficacy that protect 50% of mice from lethal infection of Streptococcus Pneumoniae EryRi 030SJ5i strains after oral administration.
The test system of test [15] is Mus musculus. Briefly: The compound has been evaluated for the in vivo efficacy that protect 50% of mice from lethal infection of Streptococcus Pneumonia EryS 032UC1 strain after oral administration.
Test [16] has as its system Mus musculus. Briefly: The compound has been evaluated for the in vivo efficacy that protect 50%of mice from lethal infection of Haemophilus influenzae AmpR 351RD7 after oral administration.
Test [17] concerns Mus musculus. Briefly: The compound has been evaluated for the in vivo efficacy that protect 50% of mice from lethal infection of Staphylococcus aureus EryS 011HT17 strains after oral administration.

In ChEMBL document CHEMBL1133301, “Beta-keto-ester chemistry and ketolides. Synthesis and antibacterial activity of 2-halogeno, 2-methyl and 2,3 enol-ether ketolides” (2000) one finds MIC and ED50 data, which are given here for nine compounds.

≈ marks a conversion by molar mass, not a printed value. Some results are limits rather than exact numbers.

A word on the ED50: it is the dose at which the effect has come halfway, by size or by number of responders.

Turning to `CC[C@H]1OC(=O)[C@@](C)(F)C(=O)[C@H](C)[C@@H](O[C@@H]2O[C@H](C)C[C@H](N(C)C)[C@H]2O)[C@](C)(OC)C[C@@H](C)C(=O)[C@H](C)[C@H]2N(CCCCn3cnc(-c4cccnc4)c3)C(=O)O[C@]12C`, the MIC in the test on Staphylococcus aureus [1] was 0.02 mg/L (≈ 0.0241 µM); in the test on Streptococcus pneumoniae [5], less than 0.02 mg/L; against Staphylococcus aureus [6] it was more than 40 mg/L; against Streptococcus pneumoniae [8], less than 0.02 mg/L; in the test on Streptococcus pyogenes, less than 0.02 mg/L; in the test on Streptococcus pneumoniae [10], less than 0.02 mg/L. Besides, the MIC against Staphylococcus aureus [11] was 0.08 mg/L (≈ 0.0964 µM); against Streptococcus pneumoniae [12], less than 0.02 mg/L; in the test with Haemophilus influenzae, 1.2 mg/L (≈ 1.45 µM). The ED50 in the test with Mus musculus [2] worked out at 4.3 mg/kg; with Mus musculus [3] it was 9 mg/kg; in the test on Mus musculus [4], 1.5 mg/kg; in the test with Mus musculus [7], 56 mg/kg; in the test on Mus musculus [9], 2 mg/kg.

For the compound `CC[C@H]1OC(=O)/C(C)=C\[C@H](C)[C@@H](O[C@@H]2O[C@H](C)C[C@H](N(C)C)[C@H]2O)[C@](C)(OC)C[C@@H](C)C(=O)[C@H](C)[C@H]2N(CCCCn3cnc(-c4cccnc4)c3)C(=O)O[C@]12C`, the MIC in the test with Staphylococcus aureus [1] was 0.08 mg/L (≈ 0.101 µM); against Streptococcus pneumoniae [5] it was 10 mg/L (≈ 12.6 µM); against Staphylococcus aureus [6], more than 40 mg/L; in the test with Streptococcus pneumoniae [8], 0.3 mg/L (≈ 0.377 µM); against Streptococcus pyogenes it was 0.02 mg/L (≈ 0.0251 µM); against Streptococcus pneumoniae [10], 2.5 mg/L (≈ 3.14 µM). Further, the MIC amounted to 0.3 mg/L (≈ 0.377 µM) in the test on Staphylococcus aureus [11], 0.02 mg/L (≈ 0.0251 µM) against Streptococcus pneumoniae [12] and 2.5 mg/L (≈ 3.14 µM) in the test on Haemophilus influenzae.

On to `CC[C@H]1OC(=O)C(C)(Cl)C(=O)[C@H](C)[C@@H](O[C@@H]2O[C@H](C)C[C@H](N(C)C)[C@H]2O)[C@](C)(OC)C[C@@H](C)C(=O)[C@H](C)[C@H]2N(CCCCn3cnc(-c4cccnc4)c3)C(=O)O[C@]12C` (stereo partly specified), for which the MIC in the test with Staphylococcus aureus [1] is 0.6 mg/L (≈ 0.709 µM); against Streptococcus pneumoniae [5] it was 5 mg/L (≈ 5.91 µM); in the test with Staphylococcus aureus [6] it was more than 40 mg/L; against Streptococcus pneumoniae [8], 1.2 mg/L (≈ 1.42 µM); with Streptococcus pyogenes it was 0.04 mg/L (≈ 0.0473 µM); with Streptococcus pneumoniae [10], 0.6 mg/L (≈ 0.709 µM). The MIC in the test with Staphylococcus aureus [11] is more than 40 mg/L; in the test on Streptococcus pneumoniae [12], 0.04 mg/L (≈ 0.0473 µM); with Haemophilus influenzae, 2.5 mg/L (≈ 2.95 µM).

On to `CC[C@H]1OC(=O)[C@H](C)[C@@H](O[C@H]2C[C@@](C)(OC)[C@@H](O)[C@H](C)O2)[C@H](C)[C@@H](O[C@@H]2O[C@H](C)C[C@H](N(C)C)[C@H]2O)[C@](C)(O)C[C@@H](C)CN(C)[C@H](C)[C@@H](O)[C@]1(C)O` [AZITHROMYCIN], for which the MIC was 0.3 mg/L (≈ 0.401 µM) against Staphylococcus aureus [1]; more than 40 mg/L in the test with Streptococcus pneumoniae [5]; more than 40 mg/L against Staphylococcus aureus [6]; more than 40 mg/L against Streptococcus pneumoniae [8]; 0.6 mg/L (≈ 0.801 µM) against Streptococcus pyogenes; more than 40 mg/L against Streptococcus pneumoniae [10]. Moreover, the values for the MIC against Staphylococcus aureus [11], with Streptococcus pneumoniae [12] and against Haemophilus influenzae were more than 40 mg/L, 0.15 mg/L (≈ 0.2 µM) and 1.2 mg/L (≈ 1.6 µM), respectively. Besides, the ED50 with Mus musculus [13] is more than 50 mg/kg; in the test with Mus musculus [14], more than 50 mg/kg; in the test on Mus musculus [15] it was 4.5 mg/kg; with Mus musculus [16] it was 94 mg/kg; in the test with Mus musculus [17], 72 mg/kg.

As for `CC[C@H]1OC(=O)[C@H](C)[C@@H](O[C@H]2C[C@@](C)(OC)[C@@H](O)[C@H](C)O2)[C@H](C)[C@@H](O[C@@H]2O[C@H](C)C[C@H](N(C)C)[C@H]2O)[C@](C)(OC)C[C@@H](C)C(=O)[C@H](C)[C@@H](O)[C@]1(C)O` [CLARITHROMYCIN], the MIC against Staphylococcus aureus [1] was 0.3 mg/L (≈ 0.401 µM); against Streptococcus pneumoniae [5] it was more than 40 mg/L; against Staphylococcus aureus [6], more than 40 mg/L; against Streptococcus pneumoniae [8], more than 40 mg/L; in the test with Streptococcus pyogenes, 0.008 mg/L (≈ 0.0107 µM); against Streptococcus pneumoniae [10], more than 40 mg/L. The MIC in the test on Staphylococcus aureus [11] was more than 40 mg/L; against Streptococcus pneumoniae [12], 0.04 mg/L (≈ 0.0535 µM); with Haemophilus influenzae, 5 mg/L (≈ 6.68 µM). Besides, the ED50 in the test on Mus musculus [2] is more than 50 mg/kg; in the test with Mus musculus [3] it was 12 mg/kg; in the test on Mus musculus [4], 2 mg/kg; in the test with Mus musculus [7], more than 150 mg/kg; in the test with Mus musculus [9] it was more than 50 mg/kg.

Consider `CC[C@H]1OC(=O)/C(C)=C(/OCOCCCc2ccccc2)[C@H](C)[C@@H](O[C@@H]2O[C@H](C)C[C@H](N(C)C)[C@H]2O)[C@](C)(OC)C[C@@H](C)C(=O)[C@H](C)[C@H]2N(CCCCn3cnc(-c4cccnc4)c3)C(=O)O[C@]12C`, for which the MIC is 5 mg/L (≈ 5.21 µM) in the test on Staphylococcus aureus [1]; 20 mg/L (≈ 20.8 µM) in the test with Streptococcus pneumoniae [5]; more than 40 mg/L against Staphylococcus aureus [6]; 20 mg/L (≈ 20.8 µM) in the test on Streptococcus pneumoniae [8]; 0.15 mg/L (≈ 0.156 µM) with Streptococcus pyogenes; 20 mg/L (≈ 20.8 µM) in the test with Streptococcus pneumoniae [10]. The MIC is more than 40 mg/L with Staphylococcus aureus [11], 0.8 mg/L (≈ 0.833 µM) against Streptococcus pneumoniae [12] and more than 40 mg/L against Haemophilus influenzae.

On to `CC[C@H]1OC(=O)/C(C)=C(/OCOCCN(C)C)[C@H](C)[C@@H](O[C@@H]2O[C@H](C)C[C@H](N(C)C)[C@H]2O)[C@](C)(OC)C[C@@H](C)C(=O)[C@H](C)[C@H]2N(CCCCn3cnc(-c4cccnc4)c3)C(=O)O[C@]12C`, for which the MIC with Staphylococcus aureus [1] was 2.5 mg/L (≈ 2.74 µM); in the test with Streptococcus pneumoniae [5], 10 mg/L (≈ 11 µM); in the test on Staphylococcus aureus [6] it was more than 40 mg/L; in the test with Streptococcus pneumoniae [8], 2.5 mg/L (≈ 2.74 µM); against Streptococcus pyogenes, 0.3 mg/L (≈ 0.329 µM); with Streptococcus pneumoniae [10], 5 mg/L (≈ 5.48 µM). Besides, the MIC with Staphylococcus aureus [11] amounted to 20 mg/L (≈ 21.9 µM); in the test with Streptococcus pneumoniae [12] it was 0.15 mg/L (≈ 0.164 µM); against Haemophilus influenzae it was 20 mg/L (≈ 21.9 µM).

Consider `CC[C@H]1OC(=O)[C@H](C)C(=O)[C@H](C)[C@@H](O[C@@H]2O[C@H](C)C[C@H](N(C)C)[C@H]2O)[C@](C)(OC)C[C@@H](C)C(=O)[C@H](C)[C@H]2N(CCCCn3cnc(-c4cccnc4)c3)C(=O)O[C@]12C` [TELITHROMYCIN], for which the MIC against Staphylococcus aureus [1] was 0.04 mg/L (≈ 0.0493 µM); against Streptococcus pneumoniae [5], less than 0.02 mg/L; in the test with Staphylococcus aureus [6], more than 40 mg/L; against Streptococcus pneumoniae [8], 0.04 mg/L (≈ 0.0493 µM); against Streptococcus pyogenes, less than 0.02 mg/L; against Streptococcus pneumoniae [10], less than 0.02 mg/L. In addition, the results for the MIC against Staphylococcus aureus [11], in the test with Streptococcus pneumoniae [12] and against Haemophilus influenzae were 0.08 mg/L (≈ 0.0985 µM), less than 0.02 mg/L and 1.2 mg/L (≈ 1.48 µM), respectively.

With `CC[C@H]1OC(=O)C(C)(C)C(=O)[C@H](C)[C@@H](O[C@@H]2O[C@H](C)C[C@H](N(C)C)[C@H]2O)[C@](C)(OC)C[C@@H](C)C(=O)[C@H](C)[C@H]2N(CCCCn3cnc(-c4cccnc4)c3)C(=O)O[C@]12C`, the MIC against Staphylococcus aureus [1] was 0.6 mg/L (≈ 0.726 µM); against Streptococcus pneumoniae [5], 2.5 mg/L (≈ 3.03 µM); with Staphylococcus aureus [6] it was more than 40 mg/L; in the test on Streptococcus pneumoniae [8], 2.5 mg/L (≈ 3.03 µM); in the test with Streptococcus pyogenes it was 0.02 mg/L (≈ 0.0242 µM); against Streptococcus pneumoniae [10], 0.6 mg/L (≈ 0.726 µM). For the same compound, the MIC in the test with Staphylococcus aureus [11] was 1.2 mg/L (≈ 1.45 µM); against Streptococcus pneumoniae [12] it was 0.02 mg/L (≈ 0.0242 µM); against Haemophilus influenzae, 2.5 mg/L (≈ 3.03 µM).
